Measurements: patent US8716277B2, “Substituted imidazole compounds useful as positive allosteric modulators of mGlu5 receptor activity” (Boehringer Ingelheim International GmbH, priority 2011, dated 2014)

Biological target: T1, human recombinant mGluR5 (Homo sapiens, UniProt P41594)
T1 construct: expressed in transfected cells; host or cells: HEK 293
Assay: positive modulation of mGluR5, calcium based FLIPR assay
Settings: EC50 of the modulation; HEK 293 cell line expressing human recombinant mGluR5; glutamate at approximately 5% basal stimulation; peak height of Ca fluorescence signal
Description: The positive modulation of mGluR5 is measured in a HEK 293 cell line expressing human recombinant mGluR5 and is detected with calcium based FLIPR assay. The cells are cultured with DMEM supplemented with 10% FCS, 2 μg/mL tetracycline, 100 μg/mL hygromycin and 500 μg/mL gneticin. The cell culture media is exchanged for tetracycline-free cell culture media 3-7 days before the assay. One day before the assay the cell culture medium is exchanged to DMEM without glutamine and phenol red and supplemented with 10% FCS, 100 μg/mL hygromycin and 500 μg/mL geneticin. On the assay day, the medium of the subconfluent cultures is removed and the cells are detached by addition of 2.5 ml EDTA(0.02%) per 175 cm2 culture flask for 1 minute. The cells are resuspend in Ringer solution (140 mM NaCl, 5 mM KCl, 2.5 mM CaCl2, 1.5 mM MgCl2, 5 mM Glucose, 10 mM Hepes; adjusted to pH 7.4 with NaOH), pooled and Ringer solution added to adjust the volume to 50 mL. The cell suspension is centrifuged for […] at 1500 U/min (425 g). The supernatant is removed and the cells washed a second time with 50 ml fresh Ringer solution and centrifuged again as before. The supernatant is again removed and the pellet resuspended in Ringer solution to 1,000,000 cells/ml (1×10^6 cells/mL). The cells are plated onto BD BioCoat Poly-D-Lysine 384 well plates (20,000 cells/well; 20 μl/well). The lid covered plates are then incubated until use at 37° C./10% CO2. For dye loading, 20 μl of Calcium-4 assay kit solution (prepared according to the manufacturer's description in Ringer solution) are added to the cells and the plates are incubated for […] 37° C. and then […] at room temperature.
Controls, Compound Dilution and Assay Execution:
Each assay plate contained wells with “high” and “low” controls:
Low controls 1% DMSO/ringer solution + basal glutamate activation (defined as 100% CTL).
High controls 10 μM CDPPB+ basal glutamate activation (defined as 200% CTL).
Test compounds are dissolved and diluted in DMSO to 100-fold the desired concentrations. In a second step, the compounds are diluted in Ringer solution such that the compounds are 4-fold more concentrated than the desired final assay concentration. The final DMSO concentration was 1%.
20 μl of each compound solution are then transferred to the assay plate and the Ca2+ kinetic is measured to determine any intrinsic compound activity. After 5 mM incubation in the FLIPR device, the second stimulation with 20 μl of glutamate in Ringer solution (glutamate concentration adjusted to approximately 5% basal stimulation of the maximal possible glutamate effect) is added and the kinetic Ca2+ response of the wells was measured for the modulation effect.
The peak height of the Ca release related fluorescence signal (9-66) is used for the EC50. The EC50 of the modulation is calculated over a nonlinear regression with GraphPad Prism (Table 1).

T1 sequence (P41594 21-1212): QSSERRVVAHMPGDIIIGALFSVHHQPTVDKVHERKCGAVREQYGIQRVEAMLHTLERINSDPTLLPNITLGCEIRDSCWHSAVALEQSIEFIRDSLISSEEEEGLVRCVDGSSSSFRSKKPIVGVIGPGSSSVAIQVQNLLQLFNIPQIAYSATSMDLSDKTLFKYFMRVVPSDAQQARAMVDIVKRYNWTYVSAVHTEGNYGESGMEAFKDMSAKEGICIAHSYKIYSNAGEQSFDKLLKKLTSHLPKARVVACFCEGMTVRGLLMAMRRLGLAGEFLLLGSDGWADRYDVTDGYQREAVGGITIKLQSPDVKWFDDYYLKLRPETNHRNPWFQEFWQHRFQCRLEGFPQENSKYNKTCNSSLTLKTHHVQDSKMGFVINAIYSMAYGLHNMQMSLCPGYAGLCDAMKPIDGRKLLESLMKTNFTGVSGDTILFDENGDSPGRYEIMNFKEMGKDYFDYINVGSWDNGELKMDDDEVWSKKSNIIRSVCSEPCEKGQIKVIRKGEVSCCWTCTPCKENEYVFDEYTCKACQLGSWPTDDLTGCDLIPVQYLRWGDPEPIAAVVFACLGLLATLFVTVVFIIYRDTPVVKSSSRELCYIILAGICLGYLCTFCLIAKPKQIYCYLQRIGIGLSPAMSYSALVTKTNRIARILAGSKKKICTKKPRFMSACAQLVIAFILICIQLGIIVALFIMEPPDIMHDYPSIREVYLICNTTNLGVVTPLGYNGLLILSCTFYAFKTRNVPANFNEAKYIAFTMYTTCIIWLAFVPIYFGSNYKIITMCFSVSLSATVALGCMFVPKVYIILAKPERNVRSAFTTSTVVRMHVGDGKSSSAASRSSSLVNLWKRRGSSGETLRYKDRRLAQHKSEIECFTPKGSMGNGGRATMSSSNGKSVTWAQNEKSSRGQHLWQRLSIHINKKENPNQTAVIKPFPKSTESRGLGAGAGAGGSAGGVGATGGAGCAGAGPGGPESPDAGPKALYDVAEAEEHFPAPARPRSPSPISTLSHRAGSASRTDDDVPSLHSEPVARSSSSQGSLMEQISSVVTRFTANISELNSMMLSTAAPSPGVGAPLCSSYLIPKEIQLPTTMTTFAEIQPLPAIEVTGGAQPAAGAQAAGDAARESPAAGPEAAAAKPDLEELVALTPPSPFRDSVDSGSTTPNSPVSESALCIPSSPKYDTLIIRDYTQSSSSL

Row | SMILES | EC50
1 | COc1cccc(N2CCN(C(=O)Cc3nc(-c4ccc(F)c(C)c4)cn3-c3ccccc3)CC2=O)c1 [Example 7.02.27.] | 0.094 µM
2 | Cc1nc2c(s1)CCN(C(=O)Cc1nc(-c3ccc(F)cc3)cn1-c1ccc(F)cc1)CC2 [Example 7.02.01., 2-[1,4-Bis-(4-fluoro-phenyl)-1H-imidazol-2-yl]-1-(2-methyl-4,5,7,8-tetrahydro-thiazolo[4,5-d]azepin-6-yl)-ethanone] | 0.094 µM
3 | Cc1nc2c(s1)CN(C(=O)Cc1nc(-c3ccc(F)c(C)c3)cn1-c1ccccc1)C2 [Example 7.02.28.] | 0.048 µM
4 | Cc1cc(-c2cn(-c3ccc(F)cc3)c(CC(=O)N3CCc4nc(N)sc4CC3)n2)ccc1F [Example 7.02.20.] | 0.07 µM
5 | Cc1ccc(-c2cn(-c3ccc(F)cc3)c(CC(=O)N3CCc4nc(C)sc4CC3)n2)cc1 [Example 7.02.06.] | 0.093 µM
6 | COc1cccc(-c2cn(-c3ccc(F)cc3)c(CC(=O)N3CCc4nc(C)sc4CC3)n2)c1 [Example 7.02.22.] | 0.138 µM
7 | COc1ccc(-c2cn(-c3ccccc3)c(CC(=O)N3CCc4nc(N)sc4CC3)n2)cc1 [Example 7.02.23.] | 0.394 µM
8 | COc1cccc(N2CCN(C(=O)Cc3nc(-c4ccc(C)cc4)cn3-c3ccc(F)cc3)CC2=O)c1 [Example 7.02.07.] | 0.096 µM
9 | Cc1nc2c(o1)CN(C(=O)Cc1nc(-c3ccc(F)c(C)c3)cn1-c1ccc(F)cc1)CC2 [Example 7.02.19.] | 0.067 µM
10 | Cc1ccc(-c2cn(-c3ccc(F)cc3)c(CC(=O)N3CCc4nc(N)sc4CC3)n2)cc1 [Example 7.02.05.] | 0.052 µM
11 | Cc1ccc(-c2cn(-c3ccc(F)cc3)c(CC(=O)N3CCc4nc(C)oc4C3)n2)cc1 [Example 7.02.04.] | 0.375 µM
12 | Cc1ccc(-c2cn(-c3ccc(F)cc3)c(CC(=O)N3CCN(c4cccc(C#N)c4)C(=O)C3)n2)cc1 [Example 7.02.08.] | 0.032 µM
13 | COc1ccc(-c2cn(-c3ccc(F)cc3)c(CC(=O)N3CCN(c4cccc(C#N)c4)C(=O)C3)n2)cc1 [Example 7.02.30.] | 0.082 µM
14 | Cc1nc2c(s1)CCN(C(=O)Cc1nc(-c3ccc(Cl)c(C)c3)cn1-c1ccc(F)cc1)CC2 [Example 7.02.15.] | 0.045 µM
15 | Cc1cc(-c2cn(-c3ccccc3)c(CC(=O)N3CCc4nc(N)sc4CC3)n2)ccc1F [Example 7.02.26.] | 0.071 µM
16 | Cc1nc2c(o1)CN(C(=O)Cc1nc(-c3ccc(Cl)c(C)c3)cn1-c1ccc(F)cc1)CC2 [Example 7.02.17.] | 0.08 µM

Row | SMILES | EC50
17 | COc1ccc(-c2cn(-c3ccc(F)cc3)c(CC(=O)N3CCN(c4cccc(OC)c4)C(=O)C3)n2)cc1 [Example 7.02.13.] | 0.074 µM
18 | Cc1nc2c(s1)CCN(C(=O)Cc1nc(-c3ccc(F)c(C)c3)cn1-c1ccc(F)cc1)CC2 [Example 7.02.18.] | 0.067 µM
19 | COc1ccc(-c2cn(-c3ccc(F)cc3)c(CC(=O)N3Cc4nc(C)sc4C3)n2)cc1 [Example 7.02.14.] | 0.087 µM
20 | Cc1cc(-c2cn(-c3ccc(F)cc3)c(CC(=O)N3CCc4nc(N)sc4CC3)n2)ccc1Cl [Example 7.02.16.] | 0.07 µM
21 | Cc1ccc(-c2cn(-c3ccc(F)cc3)c(CC(=O)N3Cc4nc(C)sc4C3)n2)cc1 [Example 7.02.09.] | 0.09 µM
22 | COc1ccc(-c2cn(-c3ccccc3)c(CC(=O)N3CCc4nc(C)sc4CC3)n2)cc1 [Example 7.02.24.] | 0.125 µM
23 | Cc1nc2c(o1)CN(C(=O)Cc1nc(-c3ccc(F)cc3)cn1-c1ccc(F)cc1)CC2 [Example 7.01.01., 2-(1,4-Bis-(4-fluoro-phenyl)-1H-imidazol-2-yl)-1-(2-methyl-6,7-dihydro-4H-oxazolo[5,4-c]pyridin-5-yl)-ethanone] | 0.784 µM
24 | Cc1nc2c(s1)CN(C(=O)Cc1nc(-c3ccc(F)cc3)cn1-c1ccc(F)cc1)C2 [Example 7.02.03.] | 0.21 µM
25 | COc1ccc(-c2cn(-c3ccc(F)cc3)c(CC(=O)N3CCc4nc(N)sc4CC3)n2)cc1 [Example 7.02.11.] | 0.103 µM
26 | Cc1nc2c(s1)CCN(C(=O)Cc1nc(-c3ccc(F)c(C)c3)cn1-c1ccccc1)CC2 [Example 7.02.29.] | 0.033 µM
27 | COc1ccc(-c2cn(-c3ccc(F)cc3)c(CC(=O)N3CCc4nc(C)sc4CC3)n2)cc1 [Example 7.02.12.] | 0.039 µM
28 | O=C(Cc1nc(-c2ccc(F)cc2)cn1-c1ccc(F)cc1)N1CCN(c2noc3ccccc23)CC1 [Example 7.02.02.] | 0.114 µM
29 | COc1cccc(-c2cn(-c3ccc(F)cc3)c(CC(=O)N3CCc4nc(C)oc4C3)n2)c1 [Example 7.02.21.] | 1.12 µM
30 | Nc1nc2c(s1)CCN(C(=O)Cc1nc(-c3ccc(F)cc3)cn1-c1ccc(F)cc1)CC2 [Example 7.01.02.] | 0.109 µM
31 | COc1ccc(-c2cn(-c3ccccc3)c(CC(=O)N3CCc4nc(C)oc4C3)n2)cc1 [Example 7.02.25.] | 1.44 µM
